{
  "source": "patent US20050054555A1",
  "about": "“Kahalalide compounds for use in cancer therapy” (priority 2001, published 2005)",
  "key": {"female mice": {"system": "female mice", "conditions": "single bolus iv injection; cited from earlier work"}, "[1]": {"system": "advanced or metastatic androgen refractory prostate cancer", "description": "OBJECTIVE: In the present phase I clinical and pharmacokinetic (PK) study the toxicity profiles PK and anti-tumour activity of KF are investigated. METHODS: KF is administered as an intravenous infusion over one hour, during five consecutive days every three weeks in patients with advanced or metastatic androgen refractory prostate cancer. On the basis of the MTD values defined in mice, a starting dose of 20 μg/m2/day was selected, which is equivalent to a total dose of 100 μg/m2. PK of KF were determined in plasma during the first course. Bioanalysis of KF was performed by LC-MS/MS. LDH, AF and especially PSA levels of each patient were also evaluated during the study to determine the activity of KF. […] One patient per level was entered at 20, 40, 80 and 160 μg/m2/day. […] The first patient of this study was re-entered at this dose level."}},
  "data": [
    {"smiles": "C/C=C1\\NC(=O)[C@H](Cc2ccccc2)NC(=O)[C@@H](C(C)C)NC(=O)[C@@H](C(C)CC)NC(=O)[C@H](NC(=O)C(NC(=O)[C@H](CCCN)NC(=O)[C@H]2CCCN2C(=O)[C@H](NC(=O)[C@@H](NC(=O)[C@@H](NC(=O)[C@H](NC(=O)CCCC(C)C)C(C)C)C(C)O)C(C)C)C(C)C)C(C)CC)C(C)OC(=O)[C@H](C(C)C)NC1=O", "note": "(single isomer, unassigned) [kahalalide F]", "values": [
      {"measurement": "maximum tolerated dose (MTD)", "setting": "female mice", "result": 0.28, "unit": "mg/kg"},
      {"measurement": "decrease in PSA level", "setting": "[1]; one patient, associated with pain relief, preliminary report", "result": "> 50", "unit": "%"},
      {"measurement": "response evaluated by PSA, one patient", "setting": "[1]; patient received 8 cycles, clinical improvement", "result": "partial response"},
      {"measurement": "PSA change in two additional patients", "setting": "[1]; preliminary report", "result": "minor PSA reductions"}
    ]}
  ]
}
